Results from paper PMC5532807 (Journal of the American Chemical Society, 2017).

Molecular target: T1, JuvD-RhFRED (Micromonospora chalcea, UniProt A0A1Z1MZ59)
T1 sequence (A0A1Z1MZ59 1-402): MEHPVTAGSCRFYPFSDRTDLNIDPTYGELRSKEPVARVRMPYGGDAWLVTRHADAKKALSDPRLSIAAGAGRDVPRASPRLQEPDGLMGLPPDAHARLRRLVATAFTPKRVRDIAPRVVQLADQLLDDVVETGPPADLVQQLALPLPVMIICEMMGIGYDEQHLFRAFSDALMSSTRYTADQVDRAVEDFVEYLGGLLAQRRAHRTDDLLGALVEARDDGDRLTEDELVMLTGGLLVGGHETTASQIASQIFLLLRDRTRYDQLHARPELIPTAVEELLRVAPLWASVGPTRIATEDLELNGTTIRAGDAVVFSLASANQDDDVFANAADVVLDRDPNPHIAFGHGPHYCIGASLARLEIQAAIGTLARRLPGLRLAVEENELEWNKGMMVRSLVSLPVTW
Assay: in vitro P450 oxidation
Format: biochemical
Conditions: C12-C13 epoxidation; enzyme preparation not given

Compound: CC[C@H]1OC(=O)C[C@@H](O)[C@H](C)[C@@H](O[C@@H]2O[C@H](C)C[C@H](N(C)C)[C@H]2O)[C@@H](CC=O)C[C@@H](C)C(=O)/C=C/C(C)=C/[C@@H]1C [compound 5, M-4365 G2]
- in vitro P450 oxidation: this enzyme effectively converted each substrate to a single product
